From ChEMBL document CHEMBL4765272, “Design, synthesis and biological evaluation of tyrosine derivatives as Mcl-1 inhibitors” (Eur J Med Chem, 2020)
The source made the active and inactive calls. No cut-off for these calls is given here.

Tests used:
PC-3 = assay: Antiproliferative activity against human PC-3 cells incubated for 72 hrs by MTT assay; format: functional, cell-based; conditions: PC-3, 72 h
HepG2 [1] = assay: Induction of apoptosis in human HepG2 cells assessed as viable cells at 20 uM measured after 48 hrs by Annexin V-FITC/propidium iodide staining based flow cytometry (reference value: 96.84%); format: functional; conditions: read-out: Activity
[2] = Inhibition of 5-FAM-BH3 peptide binding to N-terminal His8-tagged human MCL-1 (209 to 327 residues)/mouse MCL-1 (152 to 189 residues) expressed in Escherichia coli BL21 (DE3) by fluorescence polarization assay
HepG2 [3] = assay: Induction of apoptosis in human HepG2 cells transfected with siMcl-1 at 10 uM measured after 48 hrs by Annexin V-FITC/propidium iodide staining based flow cytometry; format: functional, cell-based
HepG2 [4] = assay: Antiproliferative activity against human HepG2 cells incubated for 72 hrs by MTT assay; format: functional, cell-based; conditions: HepG2, 72 h
[5] = Induction of apoptosis in human KM3 cells assessed as necrotic cells at 20 uM measured after 48 hrs by Annexin V-FITC/propidium iodide staining based flow cytometry (reference value: 0.42%); format: functional
[6] = molecular target: Bcl-2-like protein 1 (Homo sapiens) (UniProt Q07817); assay: Inhibition of 5-FAM-BH3 peptide binding to human N-terminal GST-tagged BCL-XL (1 to 212 residues) expressed in Escherichia coli BL21 (DE3) at 100 uM by fluorescence polarization assay relative to control
Bcl-2-like protein 1 (Homo sapiens), sequence (Q07817 whole entry, the tested form may be a part): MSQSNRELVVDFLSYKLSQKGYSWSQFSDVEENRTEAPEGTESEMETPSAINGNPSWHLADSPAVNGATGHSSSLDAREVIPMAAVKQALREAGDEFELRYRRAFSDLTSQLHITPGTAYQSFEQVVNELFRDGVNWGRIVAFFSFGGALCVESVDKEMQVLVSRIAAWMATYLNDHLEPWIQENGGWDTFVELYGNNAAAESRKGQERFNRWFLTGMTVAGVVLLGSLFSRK

HepG2 [7] = assay: Induction of apoptosis in human HepG2 cells assessed as necrotic cells at 10 uM measured after 48 hrs by Annexin V-FITC/propidium iodide staining based flow cytometry (reference value: 0.52%); format: functional
[8] = Induction of apoptosis in human KM3 cells assessed as early apoptotic cells at 20 uM measured after 48 hrs by Annexin V-FITC/propidium iodide staining based flow cytometry (reference value: 2.18%); format: functional
HepG2 [9] = assay: Induction of apoptosis in human HepG2 cells assessed as late apoptotic cells at 20 uM measured after 48 hrs by Annexin V-FITC/propidium iodide staining based flow cytometry (reference value: 1.93%); format: functional
MOLT-4 = assay: Antiproliferative activity against human MOLT-4 cells incubated for 72 hrs by MTT assay; format: functional, cell-based; conditions: MOLT-4, 72 h
HepG2 [10] = assay: Induction of apoptosis in human HepG2 cells assessed as late apoptotic cells at 10 uM measured after 48 hrs by Annexin V-FITC/propidium iodide staining based flow cytometry (reference value: 1.93%); format: functional
[11] = Induction of apoptosis in human KM3 cells assessed as viable cells at 20 uM measured after 48 hrs by Annexin V-FITC/propidium iodide staining based flow cytometry (reference value: 96.24%); format: functional; conditions: read-out: Activity
HepG2 [12] = assay: Induction of apoptosis in human HepG2 cells assessed as viable cells at 10 uM measured after 48 hrs by Annexin V-FITC/propidium iodide staining based flow cytometry (reference value: 96.84%); format: functional; conditions: read-out: Activity
HepG2 [13] = assay: Induction of apoptosis in human HepG2 cells assessed as necrotic cells at 20 uM measured after 48 hrs by Annexin V-FITC/propidium iodide staining based flow cytometry (reference value: 0.52%); format: functional
[14] = Induction of apoptosis in human KM3 cells assessed as late apoptotic cells at 20 uM measured after 48 hrs by Annexin V-FITC/propidium iodide staining based flow cytometry (reference value: 1.15%); format: functional
KM3 = assay: Induction of apoptosis in human KM3 cells measured after 48 hrs by Annexin V-FITC/propidium iodide staining based flow cytometry; format: functional, cell-based
HepG2 [15] = assay: Induction of apoptosis in human HepG2 cells measured after 48 hrs by Annexin V-FITC/propidium iodide staining based flow cytometry; format: functional, cell-based
NCI-H1299 = assay: Antiproliferative activity against human NCI-H1299 cells incubated for 72 hrs by MTT assay; format: functional, cell-based; conditions: NCI-H1299, 72 h
RPMI-8226 = assay: Antiproliferative activity against human RPMI-8226 cells incubated for 72 hrs by MTT assay; format: functional, cell-based; conditions: RPMI-8226, 72 h
HepG2 [16] = assay: Induction of apoptosis in human HepG2 cells assessed as early apoptotic cells at 10 uM measured after 48 hrs by Annexin V-FITC/propidium iodide staining based flow cytometry (reference value: 0.71%); format: functional
[17] = Induction of apoptosis in human KM3 cells assessed as early apoptotic cells at 10 uM measured after 48 hrs by Annexin V-FITC/propidium iodide staining based flow cytometry (reference value: 2.18%); format: functional
[18] = Induction of apoptosis in human KM3 cells assessed as viable cells at 10 uM measured after 48 hrs by Annexin V-FITC/propidium iodide staining based flow cytometry (reference value: 96.24%); format: functional; conditions: read-out: Activity
HepG2 [19] = assay: Induction of apoptosis in human HepG2 cells measured after 48 hrs by TUNEL staining based fluorescence microscopy; format: functional, cell-based
HepG2 [20] = assay: Induction of apoptosis in human HepG2 cells assessed as early apoptotic cells at 20 uM measured after 48 hrs by Annexin V-FITC/propidium iodide staining based flow cytometry (reference value: 0.71%); format: functional
Jurkat = assay: Antiproliferative activity against human Jurkat cells incubated for 72 hrs by MTT assay; format: functional, cell-based
[21] = Induction of apoptosis in human KM3 cells assessed as necrotic cells at 10 uM measured after 48 hrs by Annexin V-FITC/propidium iodide staining based flow cytometry (reference value: 0.42%); format: functional
[22] = Antiproliferative activity against human KM3 cells incubated for 72 hrs by MTT assay; format: functional, cell-based; conditions: KM3, 72 h
[23] = Inhibition of 5-FAM-BH3 peptide binding to human N-terminal GST-tagged BCL-2 (1 to 34 residues)/BCL-XL (29 to 44 residues)/BCL-2 isoform 2 (92 to 207 residues) expressed in Escherichia coli BL21 (DE3) by fluorescence polarization assay
[24] = Induction of apoptosis in human KM3 cells assessed as late apoptotic cells at 10 uM measured after 48 hrs by Annexin V-FITC/propidium iodide staining based flow cytometry (reference value: 1.15%); format: functional
HepG2 [25] = assay: Induction of apoptosis in human HepG2 cells at 10 to 20 uM measured after 48 hrs by TUNEL staining based fluorescence microscopy; format: functional, cell-based; conditions: dose 10-20 µM
Homo sapiens = species on record: Homo sapiens; assay: Inhibition of 5-FAM-BH3 peptide binding to human N-terminal GST-tagged BCL-2 (1 to 34 residues)/BCL-XL (29 to 44 residues)/BCL-2 isoform 2 (92 to 207 residues) expressed in Escherichia coli BL21 (DE3) at 100 uM by fluorescence polarization assay relative to control

Row | SMILES | IC50 (PC-3) | viability at 20 µM (HepG2 [1]) | Ki [2] | IC50 (HepG2 [4]) | Activity [5] | inhibition [6] | Activity (HepG2 [7]) | Activity [8] | Activity (HepG2 [9]) | IC50 (MOLT-4) | Activity (HepG2 [10]) | viability at 20 µM [11] | viability at 10 µM (HepG2 [12]) | Activity (HepG2 [13]) | Activity [14] | IC50 (NCI-H1299) | IC50 (RPMI-8226) | Activity (HepG2 [16]) | Activity [17] | viability at 10 µM [18] | also measured
1 | Cc1cc(OCCCOc2ccc(C[C@H](NC(=O)OC(C)(C)C)C(=O)NS(=O)(=O)c3ccc(NCCCc4ccccc4)c([N+](=O)[O-])c3)cc2)cc(C)c1Cl | 15.8 µM | 15.4% | 0.18 µM | 6.42 µM | 2.09% | > 50% | 2.02% | 20.71% | 78.54% | 17.4 µM | 7.18% | 12.9% | 88.6% | 2.64% | 64.31% | 20.7 µM | 6.34 µM | 2.24% | 12.11% | 82.3% | Activity (HepG2 [3]): inactive; Activity (KM3): Dose-dependent effect; Activity (HepG2 [15]): Dose-dependent effect; Activity (HepG2 [19]): Dose-dependent effect; Activity (HepG2 [20]): 3.4%; IC50 (Jurkat): 15.1 µM; Activity [21]: 0.66%; IC50 [22]: 8.25 µM; Ki [23]: 1.1 µM; Activity [24]: 4.94%
2 | O=C(O)CSc1cc(NS(=O)(=O)c2ccc(Br)cc2)c2ccccc2c1O | 8.43 µM | 11% | 0.21 µM | 11.4 µM | 1.52% | > 50% | 1.36% | 40.5% | 86.11% | 3.14 µM | 20.03% | 23.8% | 76.4% | 0.45% | 34.2% | 6.08 µM | 5.77 µM | 2.23% | 15.35% | 72.7% | Activity (HepG2 [25]): Active; Activity (HepG2 [20]): 2.44%; IC50 (Jurkat): 9.79 µM; Activity [21]: 0.31%; IC50 [22]: 11.2 µM; Ki [23]: 11 µM; Activity [24]: 11.64%
3 | Cc1ccc(CC(=O)N[C@@H](Cc2cc(Br)c(OCCOc3cccc4ccccc34)c(Br)c2)C(=O)NS(=O)(=O)c2ccc(NCCCc3ccccc3)c([N+](=O)[O-])c2)cc1 | 18.9 µM | 15.6% | 0.23 µM | 7.5 µM | 0.93% | > 50% | 2.63% | 16.21% | 80.03% | 17.7 µM | 9.03% | 8.34% | 85.9% | 2.04% | 74.52% | 21.6 µM | 7.67 µM | 2.44% | 10.47% | 84.5% | Activity (HepG2 [3]): inactive; inhibition (Homo sapiens): > 50%; Activity (KM3): Dose-dependent effect; Activity (HepG2 [15]): Dose-dependent effect; Activity (HepG2 [19]): Dose-dependent effect; Activity (HepG2 [20]): 2.38%; IC50 (Jurkat): 16.5 µM; Activity [21]: 0.73%; IC50 [22]: 11.5 µM; Activity [24]: 4.31%
